Source: patent publication US6362188B1, “Farnesyl protein transferase inhibitors” (Schering Corporation, priority 1998, dated 2002)
pIC50: −log10 of the molar value.

Tested on: Human tumor cells
Assay: Soft Agar Assay (anchorage-independent growth)
Type: cell-based
Conditions: colony outgrowth in soft agar, stated as a range for the group
Method: Anchorage-independent growth is a characteristic of tumorigenic cell lines. Human tumor cells can be suspended in growth medium containing 0.3% agarose and an indicated concentration of a farnesyl transferase inhibitor. The solution can be overlayed onto growth medium solidified with 0.6% agarose containing the same concentration of farnesyl transferase inhibitor as the top layer. After the top layer is solidified, plates can be incubated for 10-16 days at 37° C. under 5% CO2 to allow colony outgrowth. After incubation, the colonies can be stained by overlaying the agar with a solution of MTT (3-[4,5-dimethyl-thiazol-2-yl]-2,5-diphenyltetrazolium bromide, Thiazolyl blue) (1 mg/mL in PBS). Colonies can be counted and the IC50's can be determined.

Row | SMILES | pIC50
1 | Cc1[nH]cnc1CC1CN(C(=O)C2CN(C3c4ccc(Cl)cc4CCc4cc(Br)cnc43)CCN2C(=O)OC2CCCCC2)CCS1(=O)=O (single isomer, unassigned) [Example 212] | 7.52 to 10.30
2 | Cc1cncn1C[C@H]1CN(C(=O)[C@H]2CN([C@H]3c4ccc(Cl)cc4CCc4cc(Br)cnc43)CCN2C(=O)OC(C)(C)C)CCS1(=O)=O [Example 154] | 7.52 to 10.30
3 | Cc1nccn1CC1CN(C(=O)C2CN(C3c4ccc(Cl)cc4CCc4cccnc43)CCN2C(=O)OC(C)(C)C)CCS1(=O)=O (stereo not drawn) [35(E)] | 7.52 to 10.30
4 | Cc1nc(C)n(CC2CCCN(C(=O)C3CN(C4c5ccc(Cl)cc5CCc5cccnc54)CCN3C(=O)OC3CCCCC3)C2)c1C (single isomer, unassigned) [47(P)] | 7.52 to 10.30
5 | Cc1cn(C[C@]2(C)CCCN(C(=O)[C@H]3CN([C@H]4c5ccc(Cl)cc5CCc5cccnc54)CCN3C(=O)OC3CCCCC3)C2)cn1 [Example 417] | 7.52 to 10.30
6 | Cc1cn(C[C@@H]2CN(C(=O)[C@H]3CN([C@H]4c5ccc(Cl)cc5CCc5cc(Br)cnc54)CCN3C(=O)OC3CCCCC3)CCS2(=O)=O)cn1 [Example 210] | 7.52 to 10.30
7 | Cc1cn(C[C@H]2CN(C(=O)[C@H]3CN([C@H]4c5ccc(Cl)cc5CCc5cc(Br)cnc54)CCN3C(=O)OC3CCCCC3)CCS2(=O)=O)cn1 [Example 211] | 7.52 to 10.30
8 | Cc1cn(CC2CCCN(C(=O)C3CN(C4c5ncccc5CCc5cc(Cl)cc(Br)c54)CCN3C(=O)OC(C)(C)C)C2)cn1 (single isomer, unassigned) [Example 407] | 7.52 to 10.30
9 | Cc1cn(CC[C@@H]2CCCN2C(=O)[C@H]2CN(C3c4ccc(Cl)cc4CCc4cc(Br)cnc43)CCN2C(=O)OC2CCCCC2)cn1 (stereo partly drawn) [Example 216] | 7.52 to 10.30
10 | CC(C)(C)OC(=O)N1CCN(C2c3ccc(Cl)cc3CCc3cc(Br)cnc32)CC1C(=O)N1CCS(=O)(=O)C(Cc2c[nH]cn2)C1 (stereo not drawn) [Example 155] | 7.52 to 10.30
11 | Cc1cn(CC2CN(C(=O)C3CN(C4c5ccc(Cl)cc5CCc5cccnc54)CCN3C(=O)OC3CCCCC3)CCS2(=O)=O)cn1 (single isomer, unassigned) [47(L)] | 7.52 to 10.30
12 | Cc1cn(C[C@@]2(C)CCCN(C(=O)[C@H]3CN([C@H]4c5ccc(Cl)cc5CCc5cccnc54)CCN3C(=O)OC3CCCCC3)C2)cn1 [Example 416] | 7.52 to 10.30
13 | Cc1cn(CCC2CCCN2C(=O)C2CN(C3c4ccc(Cl)cc4CCc4cccnc43)CCN2C(=O)OC2CCCCC2)cn1 (single isomer, unassigned) [47(S)] | 7.52 to 10.30
14 | Cc1nccn1CC1CN(C(=O)C2CN(C3c4ccc(Cl)cc4CCc4cc(Br)cnc43)CCN2C(=O)OC(C)(C)C)CCS1(=O)=O (stereo not drawn) [Example 151] | 7.52 to 10.30
15 | CC(C)(C)OC(=O)N1CCN(C2c3ccc(Cl)cc3CCc3cc(Br)cnc32)CC1C(=O)N1CC[S+]([O-])C(Cn2ccnc2)C1 (stereo not drawn) [Example 7] | 7.52 to 9.30
16 | CC(C)(C)OC(=O)N1CCN([C@H]2c3ccc(Cl)cc3CCc3cc(Br)cnc32)C[C@@H]1C(=O)N1CCCCC1CCn1ccnc1 (stereo partly drawn) [Example 138, 1,1-dimethylethyl 4-(3-bromo-8-chloro-6,11-dihydro-5H-benzo[5,6]cyclohepta[1,2-b]pyridin-11(S)-yl)-2(R)-[[2-[2-(1H-imidazol-1-yl)ethyl]-1-piperidinyl]carbonyl]-1-piperazinecarboxylate] | 7.52 to 9.30
17 | Cc1cn(C[C@]2(O)CCCN(C(=O)[C@H]3CN([C@H]4c5ccc(Cl)cc5CCc5cccnc54)CCN3C(=O)OC3CCCCC3)C2)cn1 (stereo in doubt) [Example 419] | 7.52 to 10.30
18 | CC(C)(C)OC(=O)N1CCN(C2c3ccc(Cl)cc3CCc3cc(Br)cnc32)C[C@@H]1C(=O)N1CCCCC1CCn1ccnc1 (stereo partly drawn) [Example 74, 1,1-dimethylethyl-4-(3-bromo-8-chloro-6,11-dihydro-5H-benzo[5,6]cyclohepta[1,2-b]pyridin-11-yl)-2(R)-[[2-[2-(1H-imidazol-1-yl)ethyl]-1-piperidinyl]carbonyl]-1-piperazinecarboxylate] | 7.52 to 9.30
19 | Cc1cn(C[C@@H]2CCCN(C(=O)[C@H]3CN([C@@H]4c5ccccc5CCc5cc(Cl)cnc54)CCN3C(=O)OCC3CC3)C2)cn1 [Example 299] | 7.52 to 10.30
20 | Cc1nccn1C[C@@H]1CCCN(C(=O)[C@H]2CN([C@H]3c4ccc(Cl)cc4CCc4cccnc43)CCN2C(=O)OC(C)(C)C)C1 [Example 30] | 7.52 to 9.30
21 | Cc1cn(CC[C@H]2CCCN2C(=O)[C@H]2CN(C3c4ccc(Cl)cc4CCc4cc(Br)cnc43)CCN2C(=O)OC2CCCCC2)cn1 (stereo partly drawn) [Example 215] | 7.52 to 10.30
22 | CC1(Cn2ccnc2)CCCN(C(=O)[C@H]2CN([C@H]3c4ccc(Cl)cc4CCc4cccnc43)CCN2C(=O)OC2CCCCC2)C1 (stereo partly drawn) [Example 415] | 7.52 to 10.30
23 | CC(C)(C)OC(=O)N1CCN(C2c3ccc(Cl)cc3CCc3cc(Br)cnc32)CC1C(=O)N1CCCCC1CCCn1ccnc1 (single isomer, unassigned) [Example 145] | 7.52 to 9.30
24 | Cc1cn(CC2CCCN(C(=O)C3CN(C4c5ccccc5CCc5cc(Cl)cnc54)CCN3C(=O)OCC3CC3)C2)cn1 (stereo not drawn) [Example 300] | 7.52 to 10.30
25 | Cc1cn(CC2CCCN(C(=O)C3CN(C4c5ncccc5CCc5cccc(Cl)c54)CCN3C(=O)OC(C)(C)C)C2)cn1 (stereo not drawn) [Example 394] | 7.52 to 10.30
26 | Cc1cncn1CC1CN(C(=O)C2CN(C3c4ccc(Cl)cc4CCc4cc(Br)cnc43)CCN2C(=O)OC(C)(C)C)CCS1(=O)=O (stereo not drawn) [Example 152] | 7.52 to 10.30
27 | Cc1nc(C)n(C[C@H]2CCCN(C(=O)[C@H]3CN([C@H]4c5ccc(Cl)cc5CCc5cc(Br)cnc54)CCN3C(=O)OC3CCCCC3)C2)c1C [Example 214] | 7.52 to 10.30

Next, values leading:

Row | pIC50 | SMILES
28 | 7.52 to 10.30 | Cc1cn(C[C@H]2CCCN(C(=O)[C@H]3CN([C@@H]4c5ccc(Cl)cc5CCc5cc(Br)cnc54)CCN3C(=O)OCC(C)(C)C)C2)cn1 [Example 187]
29 | 7.52 to 10.30 | Cc1cn(C[C@@H]2CCCN(C(=O)[C@H]3CN([C@H]4c5ccc(Cl)cc5CCc5cc(Cl)cnc54)CCN3C(=O)OCC(C)(C)C)C2)cn1 [Example 234]
30 | 7.52 to 10.30 | Cc1cn(C[C@@H]2CCCN(C(=O)[C@H]3CN([C@H]4c5ccc(Cl)cc5CCc5cc(Br)cnc54)CCN3C(=O)OCC(C)(C)C)C2)cn1 [Example 174]
31 | 7.52 to 10.30 | Cc1cn(CC2CCCN(C(=O)C3CN(C4c5ccc(Cl)cc5CCc5cc(Cl)cnc54)CCN3C(=O)OCC(C)(C)C)C2)cn1 (stereo not drawn) [Example 233]
32 | 7.52 to 10.30 | Cc1cn(C[C@@H]2CCCN(C(=O)[C@H]3CN([C@@H]4c5ccc(Cl)cc5CCc5cc(Cl)cnc54)CCN3C(=O)C(C)(C)C)C2)cn1 [Example 239]
33 | 7.52 to 9.30 | CC(C)(C)OC(=O)N1CCN(C2c3ccc(Cl)cc3CCc3cc(Br)cnc32)C[C@@H]1C(=O)N1CCC[C@H](Cn2ccnc2)C1 (stereo partly drawn) [Example 1]
34 | 7.52 to 10.30 | Cc1cn(CC2CCCN(C(=O)C3CN(C4c5ccc(Cl)cc5CCc5cc(Br)cnc54)CCN3C(=O)OCC(C)(C)C)C2)cn1 (stereo not drawn) [Example 188]
35 | 7.52 to 10.30 | Cc1cn(C[C@@H]2CCCN(C(=O)[C@H]3CN([C@@H]4c5ccc(Cl)cc5CCc5cc(Br)cnc54)CCN3C(=O)OC3CCCCC3)C2)cn1 [Example 171]
36 | 7.52 to 10.30 | Cc1cn(C[C@@H]2CCCN(C(=O)[C@H]3CN([C@@H]4c5ccc(Cl)cc5CCc5cc(Br)cnc54)CCN3C(=O)OC(C)C)C2)cn1 [Example 169]
37 | 7.52 to 10.30 | Cc1nc(C)n(CC2CCCN(C(=O)C3CN(C4c5ccc(Cl)cc5CCc5cc(Br)cnc54)CCN3C(=O)OC(C)(C)C)C2)c1C (stereo not drawn) [Example 158]
38 | 7.52 to 10.30 | Cc1cn(C[C@H]2CCCN(C(=O)[C@H]3CN([C@@H]4c5ccc(Cl)cc5CCc5cc(Cl)cnc54)CCN3C(=O)OCC(C)(C)C)C2)cn1 [Example 245]
39 | 7.52 to 10.30 | Cc1cn(C[C@@H]2CCCN(C(=O)[C@H]3CN([C@@H]4c5ccc(Cl)cc5CCc5cc(Br)cnc54)CCN3C(=O)C(C)(C)C)C2)cn1 [Example 179]
40 | 7.52 to 10.30 | Cc1cn(C[C@@H]2CCCN(C(=O)[C@H]3CN([C@H]4c5ccc(Cl)cc5CCc5cc(Cl)cnc54)CCN3C(=O)C(C)(C)C)C2)cn1 [Example 240]
41 | 7.52 to 10.30 | Cc1cn(C[C@@H]2CCCN(C(=O)[C@H]3CN([C@@H]4c5ccccc5CCc5cc(Cl)cnc54)CCN3C(=O)OCC(C)(C)C)C2)cn1 [Example 297]
42 | 7.52 to 10.30 | Cc1cn(C[C@@H]2CCCN(C(=O)[C@H]3CN([C@H]4c5ccc(Cl)cc5CCc5cc(Br)cnc54)CCN3C(=O)OC3CCCCC3)C2)cn1 [Example 172]
43 | 7.52 to 10.30 | Cc1cn(CC2CCCN(C(=O)C3CN(C4c5ccccc5CCc5cc(Cl)cnc54)CCN3C(=O)OCC(C)(C)C)C2)cn1 (stereo not drawn) [Example 298]
44 | 7.52 to 10.30 | Cc1cn(C[C@@H]2CCCN(C(=O)[C@H]3CN([C@@H]4c5ccccc5CCc5cc(Cl)cnc54)CCN3C(=O)C(C)(C)C)C2)cn1 [Example 303]
45 | 7.52 to 10.30 | Cc1cn(CC2CCCN(C(=O)C3CN(C4c5ccc(Cl)cc5CCc5cc(Br)cnc54)CCN3C(=O)C(C)(C)C)C2)cn1 (stereo not drawn) [Example 180]
46 | 7.52 to 10.30 | Cc1cn(C[C@@H]2CCCN(C(=O)[C@H]3CN([C@@H]4c5ccc(Cl)cc5CCc5cc(Br)cnc54)CCN3C(=O)OCC(C)(C)C)C2)cn1 [Example 173]
47 | 7.52 to 10.30 | Cc1cn(CC2CN(C(=O)C3CN(C4c5ccc(Cl)cc5CCc5cc(Br)cnc54)CCN3C(=O)OC(C)(C)C)CCS2(=O)=O)cn1 (stereo not drawn) [Example 150]
48 | 7.52 to 10.30 | Cc1cn(C[C@@H]2CCCN(C(=O)[C@H]3CN([C@@H]4c5ccc(Cl)cc5CCc5cc(Cl)cnc54)CCN3C(=O)OC(C)C)C2)cn1 [Example 231]
49 | 7.52 to 10.30 | Cc1cn(C[C@H]2CCCN(C(=O)[C@H]3CN([C@@H]4c5ccc(Cl)cc5CCc5cc(Br)cnc54)CCN3C(=O)OC3CCCCC3)C2)cn1 [Example 185]
50 | 7.52 to 9.30 | Cc1cn(CC2CCCN(C(=O)C3CN(C4c5ccc(Cl)cc5CCc5cccnc54)CCN3C(=O)NC(C)(C)C)C2)cn1 (stereo not drawn) [Example 50]
51 | 7.52 to 10.30 | Cc1cn(C[C@@H]2CCCN(C(=O)[C@H]3CN([C@@H]4c5ccccc5CCc5cc(Cl)cnc54)CCN3C(=O)NC(C)(C)C)C2)cn1 [Example 301]
